Assay results published in patent US11186606B2, “Compositions and methods of modulating the immune response by activating alpha protein kinase 1” (Shanghai Yao Yuan Biotechnology Co., Ltd., priority 2017, dated 2021).

Columns and labels:
TLR-9 = biological target: T1, TLR-9 (Homo sapiens, UniProt Q9NR96); details: US 20100016250 by Nagata et al.; cited from earlier work
T1 sequence (Q9NR96 26-1032): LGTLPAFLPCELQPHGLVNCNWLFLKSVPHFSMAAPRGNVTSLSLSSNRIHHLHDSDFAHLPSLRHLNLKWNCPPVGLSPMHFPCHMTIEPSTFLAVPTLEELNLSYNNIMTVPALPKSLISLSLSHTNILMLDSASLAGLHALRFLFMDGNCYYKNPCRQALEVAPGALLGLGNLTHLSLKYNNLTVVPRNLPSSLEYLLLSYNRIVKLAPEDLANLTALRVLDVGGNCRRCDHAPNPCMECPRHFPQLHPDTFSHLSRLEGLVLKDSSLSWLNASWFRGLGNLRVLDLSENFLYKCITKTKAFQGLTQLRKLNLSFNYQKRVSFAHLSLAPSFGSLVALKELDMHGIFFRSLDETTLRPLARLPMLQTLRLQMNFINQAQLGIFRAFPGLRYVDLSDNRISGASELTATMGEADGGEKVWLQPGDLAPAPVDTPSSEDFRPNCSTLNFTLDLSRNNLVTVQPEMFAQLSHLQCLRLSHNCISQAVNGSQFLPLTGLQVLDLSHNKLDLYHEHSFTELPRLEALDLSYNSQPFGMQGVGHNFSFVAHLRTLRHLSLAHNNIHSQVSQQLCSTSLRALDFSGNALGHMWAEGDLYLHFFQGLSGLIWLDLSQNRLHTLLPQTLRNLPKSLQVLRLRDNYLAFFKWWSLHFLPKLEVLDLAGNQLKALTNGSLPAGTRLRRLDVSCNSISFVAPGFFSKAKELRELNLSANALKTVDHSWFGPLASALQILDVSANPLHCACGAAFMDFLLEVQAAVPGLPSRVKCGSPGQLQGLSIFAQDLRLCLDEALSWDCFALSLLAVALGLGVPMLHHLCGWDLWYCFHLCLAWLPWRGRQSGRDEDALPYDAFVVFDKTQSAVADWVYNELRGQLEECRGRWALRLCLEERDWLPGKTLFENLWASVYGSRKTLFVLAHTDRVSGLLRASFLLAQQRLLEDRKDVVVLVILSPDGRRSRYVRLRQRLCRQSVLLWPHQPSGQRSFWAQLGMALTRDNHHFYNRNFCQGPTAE

ALPK1 [1] = biological target: T2, ALPK1 (Homo sapiens, UniProt Q96QP1); assay: IL-8 and TNFα mRNA expression in HEK293 cells with control or ALPK1-directed siRNA; type: cell-based; parameters: ALPK1-directed small interfering RNA (siRNA) to silence ALPK1 expression in HEK293 cells; endogenous in cells; host or cells: HEK293
Method: To test whether HBP, HMP-1bP, and H1b-ADP were able to induce cytokine expression in an ALPK1 dependent manner, we used an ALPK1-directed small interfering RNA (siRNA) to silence ALPK1 expression in HEK293 cells. Cells were plated (1×10^4 cells/well) into 96-well plates and transfected with either control siRNA or ALPK1-directed siRNA according to the manufacturer's protocols (Lipofectamine™ RNAiMax™, Invitrogen 13778075). Following 2 days of culture, either (1) HBP (500 uM, 100 uM, 20 uM, FIG. 2A-2B) (2) HMP-1bP (500 uM, 100 uM, FIG. 3A-3B), (3) H1b-ADP (100 nM, 20 nM, 4 nM, 0.8 nM, FIG. 4A-4B) was added to culture medium and cells were harvested 4 hours later.

[2] = tested on: phosphatase activity in the serum; assay: Incubation of H1b-ADP with FBS, product analysed by LC-MS; type: in vitro ADME, bovine; details: incubated with FBS, LC-MS; AMP formed
Text: FBS contains 110-352 U/ml alkaline phosphatase.

CT26 cells = assay: mRNA expression in CT26 tumor tissue after intratumoral injection (qPCR); type: in vivo, BALB/c mice; details: 4 hours post intratumoral injection, 2.5 μg, 250 ng, 50 ng
Method: We next asked whether H1b-ADP caused an increase in pro-inflammatory cytokines within the tumor. Tumor cells (2×10^5 per 100 μL CT26 cells) were inoculated subcutaneously into the right flank of BALB/c mice. 2.5 μg (n=2), 250 ng (n=2), 50 ng (n=2) of H1b-ADP or control (n=2) was intratumorally injected (20 uL) at day 7 post inoculation. 4 hours post-injection, tumor issues were dissected and harvested. Total RNA was isolated (TRIzol™, ThermoFisher) and cDNA was synthesized (PrimeScript™ RT reagent Kit, Takara) and amplified (AceQ™ qPCR SYBR™ Green Master Mix, Vazyme Biotech using a QuantStudio™ 7 Flex Real-Time PCR Systems (ThermoFisher) according to manufacturers' protocols.

ALPK1 [3] = biological target: T2, ALPK1; assay: In vitro kinase assay of ALPK1-dependent TIFA phosphorylation; type: biochemical
Method: We performed an in vitro kinase assay with H1b-ADP and H1b-ADP-6L along with ALPK1 protein (2 nM), and TIFA protein (1.6 uM) in kinase buffer containing 50 uM ATP. TIFA phosphorylation was analyzed by denaturing gel electrophoresis followed by western blotting using an anti-phosphothreonine antibody. H1b-ADP or H1b-ADP-6L was added at 2 nM, 0.4 nM, 80 pM, 16 pM, and 3 pM.
To test this, we performed an in vitro kinase reaction for ALPK1-dependent TIFA phosphorylation in the presence of either HBP or HIdA purified from E. coli containing inactivated HIdE, or in the presence of HBP and HIdA purified from the same HIdE wild-type E. coli used in the previous experiments. Phosphorylated TIFA (three concentrations, 1%, 0.2% and […]) was detected as described above by denaturing gel electrophoresis followed by Western analysis.

[4] = 4 hours, control vs ALPK1-directed siRNA

T2 sequence (Q96QP1 whole entry): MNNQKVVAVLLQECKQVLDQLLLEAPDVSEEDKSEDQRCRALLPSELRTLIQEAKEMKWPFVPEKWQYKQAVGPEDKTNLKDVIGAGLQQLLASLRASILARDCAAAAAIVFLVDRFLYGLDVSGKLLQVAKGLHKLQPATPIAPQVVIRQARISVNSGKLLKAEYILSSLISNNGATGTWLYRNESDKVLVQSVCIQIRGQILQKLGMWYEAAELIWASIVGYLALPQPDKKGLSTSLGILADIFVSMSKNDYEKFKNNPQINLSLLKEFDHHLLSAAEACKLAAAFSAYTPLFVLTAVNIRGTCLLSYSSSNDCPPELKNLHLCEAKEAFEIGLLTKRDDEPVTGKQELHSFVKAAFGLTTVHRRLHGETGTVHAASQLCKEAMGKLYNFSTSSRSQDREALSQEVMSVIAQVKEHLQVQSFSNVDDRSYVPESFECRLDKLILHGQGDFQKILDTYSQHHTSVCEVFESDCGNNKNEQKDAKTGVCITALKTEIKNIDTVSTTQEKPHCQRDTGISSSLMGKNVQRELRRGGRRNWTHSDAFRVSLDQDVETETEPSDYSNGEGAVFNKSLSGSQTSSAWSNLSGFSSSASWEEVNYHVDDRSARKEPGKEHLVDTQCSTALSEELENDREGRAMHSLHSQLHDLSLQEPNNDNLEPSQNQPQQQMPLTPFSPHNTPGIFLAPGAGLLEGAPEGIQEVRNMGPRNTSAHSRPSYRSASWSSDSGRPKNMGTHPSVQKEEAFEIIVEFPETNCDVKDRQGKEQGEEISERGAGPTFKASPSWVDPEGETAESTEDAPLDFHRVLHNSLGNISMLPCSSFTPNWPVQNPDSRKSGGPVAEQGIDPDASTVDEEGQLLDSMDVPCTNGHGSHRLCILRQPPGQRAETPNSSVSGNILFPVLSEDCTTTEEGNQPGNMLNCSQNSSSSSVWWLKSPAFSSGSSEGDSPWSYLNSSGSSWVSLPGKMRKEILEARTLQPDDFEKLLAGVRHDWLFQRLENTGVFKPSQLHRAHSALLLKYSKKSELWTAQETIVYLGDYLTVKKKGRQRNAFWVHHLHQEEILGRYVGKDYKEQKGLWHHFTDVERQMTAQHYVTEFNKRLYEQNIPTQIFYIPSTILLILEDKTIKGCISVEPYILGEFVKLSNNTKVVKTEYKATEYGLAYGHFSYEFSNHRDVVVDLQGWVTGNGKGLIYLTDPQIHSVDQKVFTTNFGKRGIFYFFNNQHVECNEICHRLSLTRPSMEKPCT

- IL-8 mRNA expression (ALPK1 [1]; [4]): increased in an ALPK1-dependent manner
- TNFα mRNA expression (ALPK1 [1]; [4]): increased in an ALPK1-dependent manner
- concentration at which IL-8 and TNFα mRNA expression were induced (ALPK1 [1]; FIG. 5): 10 nM
- H1b-ADP amount with increasing incubation time [2]: declined
- TIFA phosphorylation (ALPK1-dependent signaling) (ALPK1 [3]; ALPK1 2 nM, TIFA 1.6 uM, 50 uM ATP, 2 nM to 3 pM): activated ALPK1-dependent signaling
SMILES: Nc1ncnc2c1ncn2[C@@H]1O[C@H](COP(=O)(O)OP(=O)(O)O[C@@H]2O[C@H]([C@H](O)CO)[C@@H](O)[C@H](O)[C@@H]2O)[C@@H](O)[C@H]1O [Compound H1b-ADP, D-glycero-D-manno-heptose-1β-ADP]
- TLR-9 agonist activity (TLR-9): TLR-9 agonist
- PD-1 and PD-L1 expression (CT26 cells): increased
- mRNA expression of cytotoxic T cell marker CD8, T-helper cell marker CD4, regulatory T cell marker Foxp3 and Th1 cell marker T-bet (CT26 cells): increased
- mRNA expression of inflammatory cytokine IL-1b, Tnfa, Ifn gamma, and IL-6, and chemokine Cxcl1 (CT26 cells): increased
- phosphorylation of the ALPK1 substrate TIFA (ALPK1 [3]; FIG. 7, chemically-synthesized compounds): TIFA is phosphorylated only in the presence of H1b-ADP
